How the values were obtained:
Test in all cases: relative viability (nuclei count vs DMSO), 5 days (fraction); higher = more cells survive
[1] = system: BEN
Method in brief: (§1)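 Relative viability equals treated-well nuclei counts divided by vehicle-well nuclei counts. Counts came from 4× images of lung cancer cell lines grown in 1536-well plates for 5 days after pin-tool dosing on the day after seeding. Dosing used one drug alone or a fixed anchor-drug dose plus five library-drug doses (not always all listed) in √10 steps, and values are medians of duplicate plates.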

[2] = system: CAL-12T
Method in brief: as §1

[3] = system: COR-L23
Method in brief: as §1

[4] = system: HCC-366
Method in brief: as §1

[5] = system: LOU-NH91
Method in brief: as §1

[6] = system: LU99A
Method in brief: as §1

[7] = system: NCI-H1355
Method in brief: as §1

[8] = system: NCI-H1437
Method in brief: as §1

[9] = system: NCI-H1563
Method in brief: as §1

[10] = system: NCI-H1651
Method in brief: as §1

[11] = system: NCI-H1734
Method in brief: as §1

[12] = system: NCI-H1793
Method in brief: as §1

[13] = system: NCI-H1975
Method in brief: as §1

[14] = system: NCI-H2023
Method in brief: as §1

[15] = system: NCI-H2085
Method in brief: as §1

[16] = system: NCI-H358
Method in brief: as §1

[17] = system: NCI-H441
Method in brief: as §1

[18] = system: NCI-H460
Method in brief: as §1

[19] = system: NCI-H838
Method in brief: as §1

[20] = system: SK-LU-1
Method in brief: as §1

## COc1nc(C)cnc1NS(=O)(=O)c1cccnc1-c1ccc(-c2nnco2)cc1 [Zibotentan] + C[C@]1(O)C[C@@H](c2nc(-c3ccc4ccc(-c5ccccc5)nc4c3)c3c(N)nccn32)C1 [Linsitinib] (partner 1 µM)
[1]; first compound 0.08 µM
  relative viability: 1.04
[1]; first compound 0.253 µM
  relative viability: 0.773
[1]; first compound 0.8 µM
  relative viability: 0.958
[1]; first compound 2.53 µM
  relative viability: 0.886
[2]; first compound 0.08 µM
  relative viability: 0.903
[2]; first compound 0.253 µM
  relative viability: 0.876
[2]; first compound 0.8 µM
  relative viability: 0.889
[2]; first compound 2.53 µM
  relative viability: 0.634
[3]; first compound 0.08 µM
  relative viability: 1.02
[3]; first compound 0.253 µM
  relative viability: 0.748
[3]; first compound 0.8 µM
  relative viability: 0.896
[3]; first compound 2.53 µM
  relative viability: 1.14
[4]; first compound 0.08 µM
  relative viability: 0.7
[4]; first compound 0.253 µM
  relative viability: 0.586
[4]; first compound 0.8 µM
  relative viability: 0.518
[4]; first compound 2.53 µM
  relative viability: 0.794
[5]; first compound 0.08 µM
  relative viability: 0.94
[5]; first compound 0.253 µM
  relative viability: 0.836
[5]; first compound 0.8 µM
  relative viability: 0.982
[5]; first compound 2.53 µM
  relative viability: 1.02
[6]; first compound 0.08 µM
  relative viability: 0.602
[6]; first compound 0.253 µM
  relative viability: 0.528
[6]; first compound 0.8 µM
  relative viability: 0.521
[6]; first compound 2.53 µM
  relative viability: 0.602
[7]; first compound 0.08 µM
  relative viability: 0.812
[7]; first compound 0.253 µM
  relative viability: 0.818
[7]; first compound 0.8 µM
  relative viability: 0.824
[7]; first compound 2.53 µM
  relative viability: 0.909
[8]; first compound 0.08 µM
  relative viability: 1.21
[8]; first compound 0.253 µM
  relative viability: 1
[8]; first compound 0.8 µM
  relative viability: 0.939
[8]; first compound 2.53 µM
  relative viability: 1.07
[9]; first compound 0.08 µM
  relative viability: 1.17
[9]; first compound 0.253 µM
  relative viability: 0.789
[9]; first compound 0.8 µM
  relative viability: 1.39
[9]; first compound 2.53 µM
  relative viability: 1.34
[10]; first compound 0.08 µM
  relative viability: 1.17
[10]; first compound 0.253 µM
  relative viability: 0.949
[10]; first compound 0.8 µM
  relative viability: 0.92
[10]; first compound 2.53 µM
  relative viability: 0.849
[11]; first compound 0.08 µM
  relative viability: 1.01
[11]; first compound 0.253 µM
  relative viability: 0.815
[11]; first compound 0.8 µM
  relative viability: 0.936
[11]; first compound 2.53 µM
  relative viability: 0.975
[12]; first compound 0.08 µM
  relative viability: 0.811
[12]; first compound 0.253 µM
  relative viability: 0.824
[12]; first compound 0.8 µM
  relative viability: 1.05
[12]; first compound 2.53 µM
  relative viability: 1.01
[13]; first compound 0.08 µM
  relative viability: 0.947
[13]; first compound 0.253 µM
  relative viability: 0.895
[13]; first compound 0.8 µM
  relative viability: 0.94
[13]; first compound 2.53 µM
  relative viability: 0.884
[14]; first compound 0.08 µM
  relative viability: 0.57
[14]; first compound 0.253 µM
  relative viability: 0.544
[14]; first compound 0.8 µM
  relative viability: 0.743
[14]; first compound 2.53 µM
  relative viability: 0.654
[15]; first compound 0.08 µM
  relative viability: 0.852
[15]; first compound 0.253 µM
  relative viability: 0.818
[15]; first compound 0.8 µM
  relative viability: 0.944
[15]; first compound 2.53 µM
  relative viability: 0.944
[16]; first compound 0.08 µM
  relative viability: 0.782
[16]; first compound 0.8 µM
  relative viability: 0.778
[16]; first compound 2.53 µM
  relative viability: 0.805
[17]; first compound 0.08 µM
  relative viability: 0.634
[17]; first compound 0.253 µM
  relative viability: 0.552
[17]; first compound 0.8 µM
  relative viability: 0.633
[17]; first compound 2.53 µM
  relative viability: 0.535
[18]; first compound 0.08 µM
  relative viability: 0.789
[18]; first compound 0.8 µM
  relative viability: 0.803
[18]; first compound 2.53 µM
  relative viability: 0.742
[19]; first compound 0.08 µM
  relative viability: 1.02
[19]; first compound 0.253 µM
  relative viability: 0.957
[19]; first compound 0.8 µM
  relative viability: 1
[19]; first compound 2.53 µM
  relative viability: 0.959
[20]; first compound 0.08 µM
  relative viability: 0.833
[20]; first compound 0.253 µM
  relative viability: 0.888
[20]; first compound 0.8 µM
  relative viability: 1.15
[20]; first compound 2.53 µM
  relative viability: 1.22

## COc1nc(C)cnc1NS(=O)(=O)c1cccnc1-c1ccc(-c2nnco2)cc1 [Zibotentan] + Cc1nc(NC(=O)N2CCC[C@H]2C(N)=O)sc1-c1ccnc(C(C)(C)C(F)(F)F)c1 [Alpelisib] (partner 2 µM)
[1]; first compound 0.08 µM
  relative viability: 1.17
[1]; first compound 0.253 µM
  relative viability: 0.955
[1]; first compound 0.8 µM
  relative viability: 1.02
[1]; first compound 2.53 µM
  relative viability: 0.922
[2]; first compound 0.08 µM
  relative viability: 1.25
[2]; first compound 0.253 µM
  relative viability: 0.923
[2]; first compound 0.8 µM
  relative viability: 1.33
[2]; first compound 2.53 µM
  relative viability: 1.23
[3]; first compound 0.08 µM
  relative viability: 0.847
[3]; first compound 0.253 µM
  relative viability: 0.655
[3]; first compound 0.8 µM
  relative viability: 0.831
[3]; first compound 2.53 µM
  relative viability: 0.824
[4]; first compound 0.08 µM
  relative viability: 0.561
[4]; first compound 0.253 µM
  relative viability: 0.373
[4]; first compound 0.8 µM
  relative viability: 0.474
[4]; first compound 2.53 µM
  relative viability: 0.497
[5]; first compound 0.08 µM
  relative viability: 0.749
[5]; first compound 0.253 µM
  relative viability: 0.696
[5]; first compound 0.8 µM
  relative viability: 0.785
[5]; first compound 2.53 µM
  relative viability: 0.702
[6]; first compound 0.08 µM
  relative viability: 0.516
[6]; first compound 0.253 µM
  relative viability: 0.58
[6]; first compound 0.8 µM
  relative viability: 0.545
[6]; first compound 2.53 µM
  relative viability: 0.58
[7]; first compound 0.08 µM
  relative viability: 0.942
[7]; first compound 0.253 µM
  relative viability: 0.898
[7]; first compound 0.8 µM
  relative viability: 0.825
[7]; first compound 2.53 µM
  relative viability: 0.794
[8]; first compound 0.08 µM
  relative viability: 0.949
[8]; first compound 0.253 µM
  relative viability: 0.867
[8]; first compound 0.8 µM
  relative viability: 0.913
[8]; first compound 2.53 µM
  relative viability: 0.973
[9]; first compound 0.08 µM
  relative viability: 0.978
[9]; first compound 0.253 µM
  relative viability: 0.666
[9]; first compound 0.8 µM
  relative viability: 1.01
[9]; first compound 2.53 µM
  relative viability: 1.02
[10]; first compound 0.08 µM
  relative viability: 0.882
[10]; first compound 0.253 µM
  relative viability: 0.88
[10]; first compound 0.8 µM
  relative viability: 0.88
[10]; first compound 2.53 µM
  relative viability: 1.04
[11]; first compound 0.08 µM
  relative viability: 0.794
[11]; first compound 0.253 µM
  relative viability: 0.726
[11]; first compound 0.8 µM
  relative viability: 0.681
[11]; first compound 2.53 µM
  relative viability: 0.686
[12]; first compound 0.08 µM
  relative viability: 0.821
[12]; first compound 0.253 µM
  relative viability: 0.53
[12]; first compound 0.8 µM
  relative viability: 0.852
[12]; first compound 2.53 µM
  relative viability: 0.713
[13]; first compound 0.08 µM
  relative viability: 0.635
[13]; first compound 0.253 µM
  relative viability: 0.548
[13]; first compound 0.8 µM
  relative viability: 0.642
[13]; first compound 2.53 µM
  relative viability: 0.585
[14]; first compound 0.08 µM
  relative viability: 0.632
[14]; first compound 0.253 µM
  relative viability: 0.485
[14]; first compound 0.8 µM
  relative viability: 0.658
[14]; first compound 2.53 µM
  relative viability: 0.591
[15]; first compound 0.08 µM
  relative viability: 0.93
[15]; first compound 0.253 µM
  relative viability: 0.939
[15]; first compound 0.8 µM
  relative viability: 1.06
[15]; first compound 2.53 µM
  relative viability: 0.932
[16]; first compound 0.08 µM
  relative viability: 1
[16]; first compound 0.8 µM
  relative viability: 0.891
[16]; first compound 2.53 µM
  relative viability: 0.848
[17]; first compound 0.08 µM
  relative viability: 0.757
[17]; first compound 0.8 µM
  relative viability: 0.776
[17]; first compound 2.53 µM
  relative viability: 0.779
[18]; first compound 0.08 µM
  relative viability: 0.58
[18]; first compound 0.8 µM
  relative viability: 0.57
[18]; first compound 2.53 µM
  relative viability: 0.452
[19]; first compound 0.08 µM
  relative viability: 0.957
[19]; first compound 0.253 µM
  relative viability: 1.01
[19]; first compound 0.8 µM
  relative viability: 0.956
[19]; first compound 2.53 µM
  relative viability: 1.05
[20]; first compound 0.08 µM
  relative viability: 1.08
[20]; first compound 0.253 µM
  relative viability: 0.629
[20]; first compound 0.8 µM
  relative viability: 1.12
[20]; first compound 2.53 µM
  relative viability: 0.907

— the supplement of paper PMC10307832
